One data set relates to DMS 273. Nature of the data set: in vitro small cell lung cancer cell growth inhibition (NCI screen). Type of data set: cell-based. To be noted: Homo sapiens, read-out: cytotoxicity log GI50 (converted).
The next data set has as its system DMS 114. Described as above. The format is cell-based, human. Conditions: for GI50: Homo sapiens, read-out: cytotoxicity log GI50 (converted).

One may read the GI50 as the concentration that inhibits growth by half. In the case of `Cc1nc2c(n1Cc1ccc(Cl)cc1)C(=O)c1ccccc1C2=O` [Compound 20], the GI50 with DMS 273 is 2.63 µM.
As to `CC(=O)NC1=C(NCC(C)C)C(=O)c2ccccc2C1=O` [Compound 31], the figures for the GI50 in the data set with DMS 273 and with DMS 114 were 14.5 µM and 14.8 µM, respectively.
For `Cc1nc2c(n1C(C)(C)C)C(=O)c1ccccc1C2=O` [Compound 8], the GI50 with DMS 273 is 52.5 µM.
The same measure, in the same setting: next, `Cc1nc2c(n1CCC(C)C)C(=O)c1ccccc1C2=O` [Compound 11]: 11 µM.
Consider `CCC(C)NC1=C(NC(C)=O)C(=O)c2ccccc2C1=O` (centres unmarked) [Compound 30], for which the results for the GI50 with DMS 273 and in the data set with DMS 114 were 27.5 µM and 28.2 µM, respectively.
For `CCC(C)n1c(C)nc2c1C(=O)c1ccccc1C2=O` (centres unmarked) [Compound 6], the GI50 in the data set on DMS 273 is 33.9 µM.
On to `O=C1c2ccccc2C(=O)c2[nH]c(Cc3ccccc3F)nc21` [Compound 4b], for which the values for the 50% growth inhibitory concentration (GI50) in the data set on DMS 273 and in the data set with DMS 114 were 34.7 µM and 33.9 µM, respectively.
On to `Cc1nc2c(n1Cc1ccc(F)cc1)C(=O)c1ccccc1C2=O` [Compound 19], for which the concentration for 50% growth inhibition (GI50) in the data set on DMS 273 is 6.46 µM.
The same measure, in the same setting: next, `NC1=C(NC(=O)Cc2ccc(F)cc2)C(=O)c2ccccc2C1=O` [Compound 3c]: 33.9 µM.
On the same count and under the same terms, next, `Cc1nc2c(n1CCO)C(=O)c1ccccc1C2=O` [Compound 16]: 20 µM.
The same measure, in the same setting: the result for `CCn1c(Cc2ccc(F)cc2)nc2c1C(=O)c1ccccc1C2=O` [Compound 66] reads 9.77 µM; that for `CCC(C)(C)n1c(C)nc2c1C(=O)c1ccccc1C2=O` [Compound 12], 11.7 µM; that for `CCC(CC)n1c(C)nc2c1C(=O)c1ccccc1C2=O` [Compound 10], 22.9 µM.
`CC(=O)NC1=C(NCCN(C)C)C(=O)c2ccccc2C1=O` [Compound 39]: in the data set on DMS 273, the GI50 is 11.7 µM.
The same measure, in the same setting: next, `Cc1ccc(Cn2c(C)nc3c2C(=O)c2ccccc2C3=O)cc1` [Compound 17]: 1.07 µM.
`O=C(Cc1ccccc1F)NC1=C(Cl)C(=O)c2ccccc2C1=O` [Compound 2i, 2-(2-Fluorophenyl)acetamido-3-chloro-1,4-naphthoguinone]: in the data set on DMS 114, the concentration for 50% growth inhibition (GI50) was 0.174 µM.
In the case of `CCCC(C)n1c(C)nc2c1C(=O)c1ccccc1C2=O` (centres unmarked) [Compound 9], in the data set on DMS 273, the GI50 is 7.24 µM.
With `CCC(C)Cn1c(C)nc2c1C(=O)c1ccccc1C2=O` (centres unmarked) [Compound 13], the 50% growth inhibitory concentration (GI50) in the data set on DMS 273 was 9.77 µM.
For the compound `CCn1c(C)nc2c1C(=O)c1ccccc1C2=O` [Compound 5, 1-ethyl-2-methylnaphth-[2,3-d]imidazole-4,9-dione], in the data set with DMS 273, the GI50 is 1.66 µM. In the data set on DMS 114, the “cytotoxicity log GI50” value is -6.56 M and the GI50 was 0.275 µM.
Regarding `Cc1nc2c(n1CC(C)C)C(=O)c1ccccc1C2=O` [Compound 7], the concentration for 50% growth inhibition (GI50) in the data set on DMS 273 is 26.9 µM.
Still for that read-out and setting: next, `COc1ccc(Cn2c(C)nc3c2C(=O)c2ccccc2C3=O)cc1` [Compound 18]: 3.31 µM.

The record behind these values is US5789431A, “Naphthoquinone antitumor compound and method” (The University of North Carolina at Chapel Hill, priority 1996, dated 1998).
